According to patent US20220356174A1, “PYRIDIN-2-ONE COMPOUNDS USEFUL AS SMARCA2 ANTAGONISTS” (Epizyme, Inc., priority 2018, published 2022):
Values belong to the molecule of their own block, whether it stands above or below them.

How the values were obtained:
Format in all cases: cell-based
[1] = system: various lung cancer cell lines; experiment: Long term proliferation (LTP) assay in various cancer cell lines
Procedure: The following cell lines were evaluated in an adherent cell line proliferation assay described herein: A549, HCC15, COV434, NCIH460, NCIH358, NCIH358-SMARCA2, NCIH358-SMARCA, NCIH1703, NCIH838, NCIH322, NCIH2122, NCIH2023, NCIH1355, NCIH1693, NCIH441, NCIH2030, NCIH1573, NCIH1373, NCIH1650, and NCIH1693. Plating densities for each cell line were determined based on growth curves (measured by ATP viability) and density over a 7 day timecourse. On the day before compound treatment, cells were plated in either 96-well plates in triplicate (for the day 0-7 timecourse) or 6-well plates (for replating on day 7 for the remainder of the timecourse). On Day 0, cells were either untreated, DMSO-treated, or treated with increasing concentrations of Compound 139 up to 10 μM. Plates were read on Day 0, Day 4, and Day 7 using a luminescent cell viability assay, with compound/media being replenished on Day 4. On Day 7, the 6-well plates were trypsinized, centrifuged, and resuspended in fresh media for counting by Vi-Cell. Cells from each treatment were replated at the original density in 96-well plates in triplicate. Cells were allowed to adhere to the plate overnight, and cells were treated as on Day 0. On Day 7, 11 and 14, plates were read using a luminescent cell viability assay, with compound/media being replenished on Day 11. Averages of triplicates were used to plot proliferation over the timecourse, and calculate IC50 values.
The following cell lines were evaluated in an adherent cell line proliferation assay described herein: NCIH522, CORL23, NCIH1693, NCIH1838, HCC1588, NCIH1435, NCIH2085, HCC827, NCIH1792, NCIH596, NCIH1568, NCIH1793, NCIH2126, CORL105, NCIH1573, NCIH1693, NCIH1395, HCC44, NCIH2126, NCIH520, NCIH1373, NCIH2172, NCIH23, HCT116, […], NCIH2347, NCIH2110, NCIH647, NCIH1437, AGS, KMS11, BT549, HUPT4, NCIH1048, TE10, and TE14. Cell densities were determined by growth curve as per protocol 1. For the proliferation assay, on Day 0, cells were either untreated, DMSO-treated, or treated with increasing concentrations of Compound 139 up to 10 μM. Plates were read on Day 0, Day 4, and Day 7 using luminescent cell viability assay. On Day 7, the 6-well plates were trypsinized, centrifuged, and resuspended in fresh media for counting by Vi-Cell. Cells from each treatment were replated at the original density in 96-well plates in triplicate. Cells were treated with compound as on Day 0. On Day 7, 11 and 14, plates were read using a luminescent cell viability assay. Averages of triplicates were used to plot proliferation over the timecourse, and calculate IC50 values.

A549 cells = experiment: Long term proliferation (LTP) assay, day 15 IC50 in A549 cells; settings: Homo sapiens, 360 h
H358 cells = experiment: High-throughput proliferation (HTP) assay for H358 cells (CellTiter-Glo, 7 days); settings: Homo sapiens, NCI-H358, 168 h, read-out: H358 SMARCA2 IC50
Outline: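 Cells were plated at 1,000 cells/well in RPMI 1640 + 10% HI-FBS + 1% pen/strep on pre-dispensed compound and incubated 7 days at 37 °C, 5% CO2. Viability was read as ATP luminescence with CellTiter-Glo after 30 min at RT. DMSO served as 0% and 10 µM doxorubicin as 100% inhibition for EC50/IC50.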

[2] = Homo sapiens, A549, A549, SMARCA4 protein Absent, Lung NSCLC adenocarcinoma
[3] = Homo sapiens, COR-L105, CORL105, SMARCA4 protein Present, Lung NSCLC adenocarcinoma
[4] = Homo sapiens, HCT-116, HCT116, SMARCA4 protein Present, Colon Cancer
[5] = Homo sapiens, NCI-H358, NCIH358, SMARCA4 protein Present, Lung NSCLC bronchioloalveolar adenocarcinoma
[6] = Homo sapiens, NCI-H358, NCIH358 SMARCA4, SMARCA4 protein Absent, Lung NSCLC bronchioloalveolar adenocarcinoma
[7] = Homo sapiens, NCI-H460, NCIH460, SMARCA4 protein Present, Lung NSCLC large cell carcinoma
[8] = Homo sapiens, NCI-H522, NCIH522, SMARCA4 protein Absent, Lung NSCLC adenocarcinoma
[9] = Homo sapiens, NCI-H1299, NCIH1299, Lung NSCLC non small cell carcinoma
[10] = NCI-H1568, NCIH1568, SMARCA4 protein Absent, Lung NSCLC adenocarcinoma
[11] = NCIH2085, SMARCA4 protein Present, Lung NSCLC adenocarcinoma
[12] = RERFLCAI, SMARCA4 protein Absent, Lung NSCLC squamous cell carcinoma
[13] = HCC15, HCC15, SMARCA4 protein Absent, Lung NSCLC squamous cell carcinoma
[14] = Homo sapiens, COR-L23, CORL23, SMARCA4 protein Present, Lung NSCLC large cell carcinoma
[15] = Homo sapiens, Calu-6, CALU6, SMARCA4 protein Present, Lung NSCLC undifferentiated carcinoma
[16] = Homo sapiens, HCC44, HCC44, SMARCA4 protein Present, Lung NSCLC adenocarcinoma
[17] = Homo sapiens, NCI-H23, NCIH23, SMARCA4 protein Absent, Lung NSCLC non small cell carcinoma
[18] = Homo sapiens, NCI-H358, NCIH358 SMARCA2, SMARCA4 protein Present, Lung NSCLC bronchioloalveolar adenocarcinoma
[19] = Homo sapiens, NCI-H441, NCIH441, SMARCA4 protein Present, Lung NSCLC adenocarcinoma
[20] = Homo sapiens, NCI-H596, NCIH596, Lung NSCLC mixed adenosquamous carcinoma
[21] = Homo sapiens, NCI-H810, NCIH810, SMARCA4 protein Present, Lung NSCLC large cell carcinoma
[22] = Homo sapiens, NCI-H1437, NCIH1437, SMARCA4 protein Present, Lung NSCLC adenocarcinoma
[23] = Homo sapiens, NCI-H1563, NCIH1563, SMARCA4 protein Present, Lung NSCLC adenocarcinoma
[24] = Homo sapiens, NCI-H1573, NCIH1573, SMARCA4 protein Absent, Lung NSCLC adenocarcinoma
[25] = Homo sapiens, NCI-H1693, NCIH1693, SMARCA4 protein Absent, Lung NSCLC adenocarcinoma
[26] = Homo sapiens, NCI-H1975, NCIH1975, SMARCA4 protein Present, Lung NSCLC non small cell carcinoma
[27] = Homo sapiens, NCI-H2030, NCIH2030, SMARCA4 protein Absent, Lung NSCLC non small cell carcinoma
[28] = Homo sapiens, NCI-H2122, NCIH2122, SMARCA4 protein Present, Lung NSCLC adenocarcinoma
[29] = Homo sapiens, PANC-1, PANC1, Pancreatic Cancer ductal carcinoma
[30] = Homo sapiens, SW900, SW900, SMARCA4 protein Present, Lung NSCLC squamous cell carcinoma
[31] = Hs766T, Pancreatic Cancer ductal carcinoma

SMILES: N#Cc1cc(C(=O)Nc2cc(F)c(=O)n(CC(F)F)c2)sc1C(F)(F)F [Compound 82c, 4-cyano-N-[1-(2,2-difluoroethyl)-5-fluoro-6-oxopyridin-3-yl]-5-(trifluoromethyl)thiophene-2-carboxamide]
IC50 [1, 2]: 259 nM
IC50 [1, 3]: 170 nM
IC50 [1, 4]: 142 nM
IC50 [1, 5]: 1700 nM
IC50 [1, 6]: 383 nM
IC50 [1, 7]: 10000 nM
IC50 [1, 8]: 9700 nM
IC50 [1, 9]: 1700 nM
IC50 ([1]; Homo sapiens, NCI-H1581, NCIH1581, SMARCA4 protein Absent, Lung NSCLC large cell carcinoma): 10000 nM
IC50 [1, 10]: 10000 nM
IC50 [1, 11]: 10000 nM
IC50 [1, 12]: 26 nM
IC50 (A549 cells): 259 nM
IC50 (H358 cells): > 10 µM

IC50 [1, 13]: 677 nM
IC50 ([1]; HCC1588, HCC1588, SMARCA4 protein Present, Lung NSCLC squamous cell carcinoma): 906 nM
IC50 [1, 2]: 316 nM
IC50 [1, 14]: 1700 nM
IC50 [1, 3]: 95 nM
IC50 [1, 15]: 1210 nM
IC50 [1, 16]: 1270 nM
IC50 ([1]; Homo sapiens, HCC827, HCC827, SMARCA4 protein Present, Lung NSCLC adenocarcinoma (bronchioalveolar features)): 10000 nM
IC50 [1, 4]: 169 nM
IC50 [1, 17]: 1100 nM
IC50 [1, 5]: 10000 nM
IC50 [1, 18]: 10000 nM
IC50 [1, 6]: 347 nM
IC50 [1, 19]: 5200 nM
IC50 [1, 7]: 10000 nM
IC50 [1, 8]: 10000 nM
IC50 [1, 20]: 8800 nM
IC50 [1, 21]: 174 nM
IC50 ([1]; Homo sapiens, NCI-H838, NCIH838, SMARCA4 protein Present, Lung NSCLC adenocarcinoma): 10000 nM
IC50 [1, 9]: 857 nM
IC50 ([1]; Homo sapiens, NCI-H1395, NCIH1395, SMARCA4 protein Present, Lung NSCLC adenocarcinoma): 10000 nM
IC50 [1, 22]: 1500 nM
IC50 [1, 23]: 2300 nM
IC50 [1, 24]: 504 nM
IC50 ([1]; Homo sapiens, NCI-H1650, NCIH1650, SMARCA4 protein Present, Lung NSCLC bronchioalveolar carcinoma): 5000 nM
IC50 [1, 25]: 101 nM
IC50 ([1]; Homo sapiens, NCI-H1792, NCIH1792, SMARCA4 protein Present, Lung NSCLC adenocarcinoma): 10000 nM
IC50 ([1]; Homo sapiens, NCI-H1793, NCIH1793, SMARCA4 protein Present, Lung NSCLC adenocarcinoma): 890 nM
IC50 ([1]; Homo sapiens, NCI-H1838, NCIH1838, SMARCA4 protein Present, Lung NSCLC non-small cell lung cancer): 587 nM
IC50 [1, 26]: 10000 nM
IC50 [1, 27]: 1140 nM
IC50 [1, 28]: 2800 nM
IC50 ([1]; Homo sapiens, NCI-H2126, NCIH2126, SMARCA4 protein Present, Lung NSCLC adenocarcinoma): 5500 nM
IC50 ([1]; Homo sapiens, NCI-H2342, NCIH2342, SMARCA4 protein Present, Lung NSCLC non-small cell lung cancer): 2500 nM
IC50 [1, 29]: 10000 nM
IC50 [1, 30]: 10000 nM
IC50 [1, 31]: 1000 nM
IC50 ([1]; NCI-H1435, NCIH1435, SMARCA4 protein Present, Lung NSCLC adenocarcinoma): 443 nM
IC50 [1, 10]: 395 nM
IC50 [1, 11]: 314 nM
IC50 [1, 12]: 61 nM
sensitivity to inhibition of SMARCA2 (IC50): cell lines with loss or absence of SMARCA4 versus cell lines with SMARCA4 protein present ([1]; lung cancer cell lines of Table 5, FIG. 1): more sensitive
IC50 (A549 cells): 316 nM
SMILES: N#Cc1sc(C(=O)Nc2cc(F)c(=O)n(CCF)c2)cc1Cl [Compound 139]

IC50 ([1]; COV644, Ovarian Cancer): 5600 nM
IC50 [1, 13]: 569 nM
IC50 [1, 2]: 142 nM
IC50 [1, 14]: 1400 nM
IC50 [1, 3]: 715 nM
IC50 [1, 15]: 1400 nM
IC50 ([1]; Homo sapiens, DLD-1, DLD1, SMARCA4 protein Present, Colon Cancer adenocarcinoma): 1400 nM
IC50 [1, 16]: 3300 nM
IC50 [1, 4]: 836 nM
IC50 ([1]; Homo sapiens, HT-1376, HT1376, Bladder Cancer transitional cell carcinoma): 385 nM
IC50 ([1]; Homo sapiens, MIA PaCa-2, MIAPACA2, Pancreatic Cancer ductal carcinoma): 871 nM
IC50 [1, 17]: 891 nM
IC50 [1, 5]: 10000 nM
IC50 [1, 18]: 5100 nM
IC50 [1, 6]: 312 nM
IC50 [1, 19]: 5000 nM
IC50 [1, 7]: 10000 nM
IC50 [1, 8]: 10000 nM
IC50 [1, 20]: 10000 nM
IC50 [1, 21]: 946 nM
IC50 [1, 9]: 548 nM
IC50 [1, 22]: 1400 nM
IC50 [1, 23]: 1100 nM
IC50 [1, 24]: 701 nM
IC50 [1, 25]: 202 nM
IC50 [1, 26]: 10000 nM
IC50 [1, 27]: 1100 nM
IC50 [1, 28]: 3900 nM
IC50 [1, 29]: 223 nM
IC50 [1, 30]: 10000 nM
IC50 [1, 31]: 10000 nM
IC50 [1, 10]: 509 nM
IC50 ([1]; OV7, Ovarian Cancer): 154 nM
IC50 [1, 12]: 135 nM
IC50 (A549 cells): 142 nM
IC50 (H358 cells): > 10 µM
SMILES: O=C(Nc1cc(F)c(=O)n(CC(F)F)c1)c1cc(Cl)c(C(F)(F)F)s1 [Compound 298, 4-Chloro-N-(1-(2,2-difluoroethyl)-5-fluoro-6-oxo-1,6-dihydropyridin-3-yl)-5-(trifluoromethyl)thiophene-2-carboxamide]
